Data: DBAASP
≈ marks a conversion by molar mass, not a printed value.

Columns and labels:
Assay in all cases: ≥ marks a high value that may be exact or a test limit, other limits are often not marked, values filed in µg/mL are converted to µM
[1] = tested on: Saccharomyces cerevisiae S288C
[2] = tested on: Acinetobacter baumannii Ab41
[3] = tested on: Acinetobacter baumannii AbR-215
[4] = tested on: Escherichia coli ATCC 8739
[5] = tested on: Staphylococcus aureus
[6] = tested on: Mycobacterium tuberculosis WXY
[7] = tested on: Mycobacterium tuberculosis FYX
[8] = tested on: Mycobacterium tuberculosis CAS3
[9] = tested on: Botrytis cinerea
[10] = tested on: Escherichia coli D31
[11] = tested on: Klebsiella pneumoniae
[12] = tested on: Alternaria brassicicola
[13] = tested on: Aerococcus viridans
[14] = tested on: Fusarium culmorum
[15] = tested on: Micrococcus luteus
[16] = tested on: Bacillus megaterium
[17] = tested on: Escherichia coli D22
[18] = tested on: Neurospora crassa
[19] = tested on: Salmonella enterica subsp. enterica serovar Typhimurium ATCC 14028
[20] = tested on: Escherichia coli ATCC 11219
[21] = tested on: Staphylococcus aureus ATCC 6538
[22] = tested on: Klebsiella pneumoniae ATCC 10031
[23] = tested on: Pseudomonas aeruginosa ATCC 13388
[24] = tested on: Streptococcus mutans UA159
[25] = tested on: Streptococcus sanguinis ATCC 10556
[26] = tested on: Streptococcus sobrinus ATCC 6715
[27] = tested on: Acinetobacter baumannii ATCC BAA-1794
[28] = tested on: Escherichia coli ATCC 51659
[29] = tested on: Staphylococcus aureus ATCC 33592
[30] = tested on: Pseudomonas aeruginosa ATCC 27853
[31] = tested on: Klebsiella pneumoniae ATCC 13883
[32] = tested on: Acinetobacter baumannii
[33] = tested on: Pseudomonas aeruginosa ATCC BAA-2110
[34] = tested on: Enterococcus faecalis ATCC 51299
[35] = tested on: Enterococcus faecalis ATCC 22192
[36] = tested on: Staphylococcus aureus ATCC 25923
[37] = tested on: Staphylococcus aureus ATCC 29213
[38] = tested on: Escherichia coli ATCC 25922
[39] = tested on: Pseudomonas aeruginosa
[40] = tested on: Klebsiella pneumoniae ATCC BAA-1705
[41] = tested on: Candida albicans ATCC 10231
[42] = tested on: Pseudomonas aeruginosa ATCC 9027
[43] = tested on: Klebsiella pneumoniae ATCC 33495
[44] = tested on: Escherichia coli ATCC 4157
[45] = tested on: Escherichia coli
[46] = tested on: Candida albicans
[47] = tested on: Acinetobacter baumannii ATCC 9955
[48] = tested on: Staphylococcus epidermidis

`CC(C)C[C@H](NC(=O)[C@H](CC(N)=O)NC(=O)[C@H](Cc1c[nH]c2ccccc12)NC(=O)[C@@H](NC(=O)CNC(=O)CNC(=O)[C@H](CCCN=C(N)N)NC(=O)[C@H](CC(=O)O)NC(=O)[C@H](CC(C)C)NC(=O)[C@H](CCCN=C(N)N)NC(=O)[C@@H](N)CCCN=C(N)N)C(C)C)C(=O)N[C@@H](CC(N)=O)C(=O)N[C@H](C(=O)N[C@@H](CC(N)=O)C(=O)N1CCC[C@H]1C(=O)NCC(=O)N[C@H](C(=O)N[C@H](C(=O)NCC(=O)N[C@@H](C)C(=O)N[C@@H](CCCN=C(N)N)C(=O)N[C@H](C(=O)N[C@@H](Cc1c[nH]c2ccccc12)C(=O)N[C@@H](C)C(=O)N[C@@H](CCCN=C(N)N)C(=O)N[C@H](C(=O)N[C@@H](CCCCN)C(N)=O)[C@@H](C)O)C(C)C)[C@@H](C)O)[C@@H](C)O)C(C)C` [RRLDRGGVWNLNVNPGTTGARVWARTK] was tested, and the MIC [1] was no less than 40 µM.
Work on `CC(C)C[C@H](NC(=O)[C@H](CCCCN)NC(=O)[C@H](C)NC(=O)[C@H](C)NC(=O)[C@H](C)NC(=O)[C@H](C)NC(=O)[C@H](C)NC(=O)[C@H](C)NC(=O)[C@H](CCCCN)NC(=O)[C@H](CC(C)C)NC(=O)[C@H](C)NC(=O)[C@H](C)NC(=O)[C@H](CCCCN)NC(=O)[C@H](C)NC(=O)[C@H](C)NC(=O)[C@H](CCCCN)NC(=O)[C@H](C)NC(=O)[C@H](C)NC(=O)[C@H](CC(C)C)NC(=O)[C@H](CCCCN)NC(=O)[C@H](C)NC(=O)[C@H](C)NC(=O)[C@H](C)NC(=O)[C@H](C)NC(=O)[C@H](C)NC(=O)[C@H](C)NC(=O)[C@H](CCCCN)NC(=O)[C@@H](N)CC(C)C)C(=O)O` [LKAAAAAAKLAAKAAKAALKAAAAAAKL] yielded an MIC [2] of 3.2 µM (≈ 8.06 µg/mL), an MIC [3] of 3.2 µM (≈ 8.06 µg/mL) and an MIC [4] of 3.2 µM (≈ 8.06 µg/mL). For the same molecule, the MIC [5] was no less than 80.6 µM.
For `CSCC[C@H](NC(=O)[C@H](CCCCN)NC(=O)[C@H](CCCCN)NC(=O)[C@H](CC(C)C)NC(=O)[C@H](CC(C)C)NC(=O)[C@H](CCCCN)NC(=O)[C@H](CCCCN)NC(=O)[C@H](CC(C)C)NC(=O)[C@H](CC(C)C)NC(=O)[C@@H](N)CCSC)C(=O)O` [MLLKKLLKKM], the MIC [6] was no less than 60.2 µM, the MIC [7] was no less than 60.2 µM and the MIC [8] was no less than 120 µM.
Molecule `CC[C@H](C)[C@H](N)C(=O)N[C@H](C(=O)N[C@@H](Cc1ccc(O)cc1)C(=O)N[C@H]1CSSC[C@@H](C(=O)N[C@@H](CCC(N)=O)C(=O)N[C@@H](CCCN=C(N)N)C(=O)N[C@@H](CCSC)C(=O)O)NC(=O)[C@H](CCCCN)NC(=O)CNC(=O)[C@H]([C@@H](C)O)NC(=O)[C@H](CCCN=C(N)N)NC(=O)[C@H](CCCN=C(N)N)NC(=O)[C@H](CC(N)=O)NC1=O)[C@@H](C)CC` [IIYCNRRTGKCQRM] has an MIC [9] of 14.1 µM (≈ 24.6 µg/mL), an MIC [10] of 28.3 µM (≈ 49.2 µg/mL) and an MIC [11] of 28.3 µM (≈ 49.2 µg/mL). The MIC [12] was 7.07 µM (≈ 12.3 µg/mL), the MIC [13] was 1.73 µM (≈ 3.01 µg/mL) and the MIC [14] was 28.3 µM (≈ 49.2 µg/mL). The MIC [15] was 7.07 µM (≈ 12.3 µg/mL), the MIC [16] was 14.1 µM (≈ 24.6 µg/mL) and the MIC [17] was 28.3 µM (≈ 49.2 µg/mL). It also gave an MIC [18] of 28.3 µM (≈ 49.2 µg/mL).
With `CC[C@H](C)[C@H](NC(=O)[C@H](CC(=O)O)NC(=O)[C@H](Cc1cnc[nH]1)NC(=O)[C@H](C)NC(=O)CN)C(=O)N[C@@H](CC(C)C)C(=O)N[C@@H](CCCCN)C(=O)N[C@@H](Cc1ccc(O)cc1)C(=O)NCC(=O)N[C@@H](CCCCN)C(=O)N1CCC[C@H]1C(=O)N[C@@H](CO)C(N)=O` [GAHDILKYGKPS] the MIC [19] was greater than 50 µM, the MIC [20] was no less than 50 µM and the MIC [21] was 30 µM (≈ 38.5 µg/mL). It also gave an MIC [22] of no less than 50 µM and an MIC [23] of no less than 50 µM.
`NCCCC[C@H](NC(=O)CNC(=O)[C@H](CCCCN)NC(=O)[C@H](CCCCN)NC(=O)[C@H](Cc1ccccc1)NC(=O)[C@H](Cc1ccccc1)NC(=O)[C@H](CCCCN)NC(=O)[C@H](CCCCN)NC(=O)[C@H](Cc1ccccc1)NC(=O)[C@H](Cc1ccccc1)NC(=O)[C@H](CCCCN)NC(=O)CNC(=O)[C@@H](N)Cc1c[nH]c2ccccc12)C(=O)O` [WGKFFKKFFKKGK] gave an MIC [24] of no less than 38.2 µM, an MIC [25] of no less than 153 µM and an MIC [26] of no less than 38.2 µM.
Work on `CC[C@H](C)[C@H](NC(=O)[C@H](CCCCN)NC(=O)[C@H](CCCN=C(N)N)NC(=O)[C@H](CCCN=C(N)N)NC(=O)[C@H](CC(C)C)NC(=O)[C@H](CCCCN)NC(=O)[C@H](CCCCN)NC(=O)[C@H](Cc1ccccc1)NC(=O)[C@H](CC(C)C)NC(=O)CN)C(=O)N[C@@H](CCCCN)C(=O)N[C@@H](CCCCN)C(=O)NCC(=O)N[C@@H](Cc1ccccc1)C(=O)N[C@@H](CCCCN)C(=O)N[C@@H](CCCCN)C(=O)N[C@H](C(=O)N[C@@H](Cc1ccccc1)C(=O)N[C@@H](CCCCN)C(=O)N[C@@H](CCCN=C(N)N)C(=O)N[C@@H](CC(C)C)C(=O)O)[C@@H](C)CC` [GLFKKLRRKIKKGFKKIFKRL] yielded an MIC [27] of 3.8 µM (≈ 10 µg/mL), an MIC [11] of 48.6 µM (≈ 128 µg/mL) and an MIC [28] of no less than 53.2 µM. For the same molecule, the MIC [29] was 10.6 µM (≈ 28 µg/mL), the MIC [30] was 24.3 µM (≈ 64 µg/mL) and the MIC [31] was 24.3 µM (≈ 64 µg/mL). It also gave an MIC [32] of 12.2 µM (≈ 32 µg/mL), an MIC [33] of 15.9 µM (≈ 42 µg/mL) and an MIC [34] of 15.9 µM (≈ 42 µg/mL). For the same molecule, the MIC [35] was 15.9 µM (≈ 42 µg/mL), the MIC [36] was 10.6 µM (≈ 28 µg/mL) and the MIC [37] was 48.6 µM (≈ 128 µg/mL). It also gave an MIC [38] of 12.2 µM (≈ 32 µg/mL), an MIC [39] of 8.59 µM (≈ 22.6 µg/mL) and an MIC [40] of 10.6 µM (≈ 28 µg/mL). The MIC [41] was greater than 48.6 µM, the MIC [42] was 3.8 µM (≈ 10 µg/mL) and the MIC [43] was 1.97 µM (≈ 5.2 µg/mL). For the same molecule, the MIC [44] was 7.97 µM (≈ 21 µg/mL), the MIC [45] was 34.4 µM (≈ 90.5 µg/mL) and the MIC [46] was greater than 48.6 µM. The MIC [5] was 24.3 µM (≈ 64 µg/mL), the MIC [47] was 15.9 µM (≈ 42 µg/mL) and the MIC [48] was 24.3 µM (≈ 64 µg/mL).
